Measured values: US20230210984A1, “ADOPTIVE IMMUNOTHERAPY” (The Council of the Queensland Institute of Medical Research, priority 2019, published 2023)

Legend:
SNU719 and C666.1 cells = assay: Flow cytometry of Ki67 and active Caspase 3 after individual and dual treatment; format: cell-based; conditions: dual treatment with HLA matched T cells vs individual treatment, 16 hours
Experimental: FIG. 11: Impact of dual combination of MEK1/2 inhibitor and HLA matched allogeneic EBV specific T cells. (A) Cell growth curve highlight the rate of cellular proliferation of SNU719 (upper panel) and C666.1 (lower panel) observed in the presence of HLA-matched EBV specific T cells (effector-to-target ratio of 25:1) and selumatinib (1 μM) individually and in combination, measured using Xcellegence. The effect of individual and dual combination on (B) cell proliferation based on Ki67 and (C) cell death based on active Caspase-3 of SNU719 expression (upper panel) and C666.1 (lower panel), performed using flow cytometry. The data are represented as the mean±SD from three independent experiments. P-values were calculated using one-way ANOVA: ns=not significant, *p<0.05, **p<0.01, ***p<0.001 and ****p<0.0001.
FIG. 15: Impact of dual combination of JQ1 inhibitor and HLA matched allogeneic EBV-specific T cells. The cell viability measured by MTS assay highlighting the impact of a HLA-matched EBV specific T cells at the effector-to-target ratio of 25:1 and JQ1 (2.5 μM) in suppressing cellular growth individually and in combination after 48 hrs of incubation with indicated (A) gastric (SNU719, YCCLE1 (upper panel)) and nasopharyngeal cancer cells (C17, C666.1 (lower panel)). (B) Cell growth curve highlight the rate of cellular proliferation of SNU719 (upper panel) and C666.1 (lower panel) observed in the presence of HLA-matched EBV specific T cells (effector-to-target ratio of 25:1) and JQ1 (2.5 μM) individually and in combination, measured using Xcellegence. The effect of individual and dual combination on (C) cell proliferation based on Ki67 and (D) cell death based on active Caspase-3 of SNU719 expression (upper panel) and C666.1 (lower panel), performed using flow cytometry. The data are represented as the mean±SD from three independent experiments. P-values were calculated using one-way ANOVA: ns=not significant, *p<0.05, **p<0.01, ***p<0.001 and ****p<0.0001.
Further, to validate the impact of the combination on the cell proliferation of the EBV-associated cancer cells, we challenged SNU719 and C666.1 cells with individual and dual combination using Xcellegence. […] We also performed phenotypic characterization, using flow cytometry, of SNU719 and C666.1 cells after 16 hours of individual and dual treatment in vitro.
Similarly, we targeted MYC-dependent cancer intrinsic pathway using JQ1 inhibitor by first determining the IC50 value of the inhibitor across nasopharyngeal and gastric cancer cell lines (with drug concertation ranging from 0.5 μM-10 μM). […]

[1] = test system: SNU719 derived xenograft tumour; assay: SNU719 xenograft, selumatinib and TIG-001 in vivo; design: species or system NRG mice
Experimental: FIG. 19: Assessment of therapeutic efficacy of dual combination of selumatinib and allogeneic EBV-specific cytotoxic T cells in vivo. (A) The impact of the dual combination of selumatinib and allogeneic T cells (TIG-001) on the outgrowth of EBV-positive SNU719 xenografts in NRG mice was assessed. Tumour-bearing mice were treated with two doses of HLA-matched T cells (2×10^7 T cells per dose per mouse indicated by black arrow) and selumatinib (12.5 mg/Kg) orally for continuous 14 days, either individually or in combination. The growth of each xenograft is represented as the mean tumour area±SD from n=9 mice/group. (B) Gross morphology of the tumours isolated from the mice of indicated treatment groups. (C) Representation of tumour weight described in (B) from the mice of indicated treatment groups. The data are represented as the mean±SD from n=3 mice per group. P-values were calculated using one-way ANOVA. (D) Representation of viable percentage of tumour infiltrates observed across individually treated allogeneic T cells (TIG-001) and in combination with selumatinib as determined by CD45, CD3 and CD8 expression using flow cytometry. P-values were calculated using Student T test. (E) Kaplan-Meier overall survival analysis of the mice bearing EBV-associated tumours as described in (A) following individual and combination treatment of selumatinib and allogeneic T cells. The animals' survival (n=6 mice/group) was monitored over the indicated period of time and statistical significance was analysed by log-rank test: ns=not significant, *p<0.05, **p<0.01, ***p<0.001 and ****p<0.0001.
In next set of experiments, we wanted to investigate the effect of the above described small molecules in combination of HLA matched allogeneic EBV-specific T cells in vivo. We used the combination of selumatinib and HLA-matched T cell product (TIG-001) to treat SNU719 derived xenograft tumour model in female NRG mice. Once the xenograft reached the size of ˜25 mm^2, we treated the mice with two infusion of TIG-001 (2×10^7 cells per infusion) individually and in combination with daily dosage selumatinib (12.5 mg/kg), administered orally for 14 days. […] Next, we phenotyped the infiltration of the human origin lymphocytes in these tumours using flow cytometry.

SNU719 cells = assay: Xcellegence growth curve (Example 2); format: cell-based; conditions: dual combination with EBV-specific T cells vs individual treatment
Experimental: P-values were calculated using one-way ANOVA: *p<0.05, **p<0.01, ***p<0.001 and ****p<0.0001.
We treated SNU719 cells (gastric cancer cells) with MEK1/2 inhibitor (AZD6244 (or selumetanib) and trematinib) at concentration of 0.5 μM and 1.0 μM respectively, as individual treatment or in combination with EBV-specific T cells (25:1) as effector to target ratio.

Row | Structure (SMILES) | cell death (Active Caspase 3 staining) (SNU719 and C666.1 cells) | cell proliferation (Ki67+ staining) (SNU719 and C666.1 cells) | number of viable CD45+CD3+CD8+ cells in tumours ([1]; combination with TIG-001 vs individually treated T cell group) | survival rate ([1]; dual combination with TIG-001 vs individual treatment group) | size of the tumours ([1]; dual combination with TIG-001 vs individual treatment, when control reached 150 mm^2) | tumour progression ([1]; selumatinib 12.5 mg/kg orally 14 days plus two infusions of TIG-001 (2×10^7 cells) vs individual treatment) | rate of cell death (Xcellegence) (SNU719 cells)
1 | Cc1sc2c(c1C)C(c1ccc(Cl)cc1)=N[C@@H](CC(=O)OC(C)(C)C)c1nnc(C)n1-2 [JQ1] | significant cell death | significant loss of cell proliferation |  |  |  |  | 
2 | Cn1cnc2c(F)c(Nc3ccc(Br)cc3Cl)c(C(=O)NOCCO)cc21 [selumetanib] | significant cell death | significant loss of cell proliferation | significantly more | better survival rate | significantly smaller | significant reduction | faster cell death
